Active and inactive are the calls of the source.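 How the source made its calls: active means EC50 under 50 µM in a live-cell viability test; inactive means the rest.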
system: HeLa proliferation, XTT absorbance; test: antiproliferative effect on HeLa control cancer cells – cell-based, XTT absorbance, selectivity assay for AHD inhibitor project, dose response (AID 1794806)

Row | Compound | EC50
1 | O=C(NCC1CCNCC1)c1cc2ccc(-c3ccc(N4CCCCC4)cc3)cc2s1 | 50 µM
2 | NCc1ccc(-c2ccc3cc(C(=O)NCC4CCNCC4)oc3c2)cc1 | > 51 µM (inactive)
3 | NC(=O)c1ccc(-c2ccc3cc(C(=O)NCC4CCNCC4)sc3c2)cc1 | > 51 µM (inactive)
4 | O=C(NCC1CCNCC1)c1cc2ccc(-c3ccc(N4CCCC4)cc3)cc2s1 | 50 µM
5 | O=C(NCC1CCNCC1)c1cc2cc(-c3cn[nH]c3)ccc2[nH]1 | > 51 µM (inactive)

Now from value to molecule:

Row | EC50 | Compound
6 | > 51 µM (inactive) | O=C(NCC1CCNCC1)c1cc2cc(-c3ccc(N4CCCCC4)cc3)ccc2[nH]1
7 | > 51 µM (inactive) | O=C(NCC1CCNCC1)c1c[nH]c2cc(-c3ccc(N4CCCC4)cc3)ccc12
8 | 25 µM | O=C(NCC1CCNCC1)c1cc2cc(-c3ccc(N4CCCCC4)cc3)ccc2s1
9 | 50 µM | O=C(NCC1CCNCC1)c1coc2cc(-c3ccc(N4CCCCC4)cc3)ccc12
10 | > 51 µM (inactive) | O=C(NCC1CCNCC1)c1c[nH]c2cc(-c3ccc(N4CCCCC4)cc3)ccc12
